From patent publication US10647713B2 (Nimbus Lakshmi, Inc., priority 2016, dated 2020)

Molecular target: human TYK2 (JH2domain-pseudokinase) (Homo sapiens (Human), UniProt P29597)
Test: TYK2 JH2 Domain Binding Assay (KINOMEscan, DiscoveRx)
Settings: 11-point dilution, duplicate
Outline: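 Kd from duplicate 11-point 3-fold dilutions starting at 30,000 nM, fitted by Hill equation with slope fixed at −1. Compounds (final 0.9% DMSO) displace DNA-tagged HEK293-expressed TYK2 JH2 fusion (<0.1 nM) from ligand-coated beads over 1 h at room temperature; eluted kinase read by qPCR.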

Sequence of human TYK2 (JH2domain-pseudokinase) (P29597 556-888): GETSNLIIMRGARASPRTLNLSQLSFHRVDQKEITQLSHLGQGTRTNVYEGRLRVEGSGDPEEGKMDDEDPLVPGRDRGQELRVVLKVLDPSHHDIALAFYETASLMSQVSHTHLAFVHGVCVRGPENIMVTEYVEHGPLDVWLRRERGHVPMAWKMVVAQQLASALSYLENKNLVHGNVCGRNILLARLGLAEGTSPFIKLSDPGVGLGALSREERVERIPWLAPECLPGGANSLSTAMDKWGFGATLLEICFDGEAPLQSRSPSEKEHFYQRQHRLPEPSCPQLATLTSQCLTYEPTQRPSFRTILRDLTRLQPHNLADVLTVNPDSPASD

| Compound | Kd [nM] |
| --- | --- |
| COc1c(Nc2cc(Nc3cnc(N4CCOCC4)c(C#N)n3)nc3[nH]c(C)nc23)cccc1-c1nnn(C)n1 [I-116, 6-((7-((2-methoxy-3-(2-methyl-2H-tetrazol-5-yl)phenyl)amino)-2-methyl-3H-imidazo[4,5-b]pyridin-5-yl)amino)-3-morpholinopyrazine-2-carbonitrile] | 1 to 10 |
| COc1c(Nc2cc(Nc3cnc(N4CC[C@@H](OC)C4)c(C#N)n3)nc3[nH]c(C)nc23)cccc1-c1nnn(C)n1 [I-117, (R)-6-((7-((2-methoxy-3-(2-methyl-2H-tetrazol-5-yl)phenyl)amino)-2-methyl-3H-imidazo[4,5-b]pyridin-5-yl)amino)-3-(3-methoxypyrrolidin-1-yl)pyrazine-2-carbonitrile] | 1 to 10 |
| Cc1ccc(Nc2cc(Nc3ccccc3N(C)S(C)(=O)=O)c3nc(C)[nH]c3n2)nn1 [I-118, N-methyl-N-(2-((2-methyl-5-((6-methylpyridazin-3-yl)amino)-3H-imidazo[4,5-b]pyridin-7-yl)amino)phenyl)methanesulfonamide] | 0.1 to 0.5 |
| Cc1nc2c(Nc3ccccc3N(C)S(C)(=O)=O)cc(Nc3cccc(C#N)n3)nc2[nH]1 [I-120, N-(2-((5-((6-cyanopyridin-2-yl)amino)-2-methyl-3H-imidazo[4,5-b]pyridin-7-yl)amino)phenyl)-N-methylmethanesulfonamide] | < 0.1 |
| COC1CN(c2ccc(Nc3cc(NC(=O)C4CC4)nc4[nH]c(C)nc34)c(N(C)S(C)(=O)=O)c2)C1 [I-122, N-(7-((4-(3-methoxyazetidin-1-yl)-2-(N-methylmethylsulfonamido)phenyl)amino)-2-methyl-3H-imidazo[4,5-b]pyridin-5-yl)cyclopropanecarboxamide] | 1 to 10 |
| Cc1nc2c(Nc3ccccc3N(C)S(C)(=O)=O)cc(Nc3cnc(C)c(C)n3)nc2[nH]1 [I-123, N-(2-((5-((5,6-dimethylpyrazin-2-yl)amino)-2-methyl-3H-imidazo[4,5-b]pyridin-7-yl)amino)phenyl)-N-methylmethanesulfonamide] | 0.1 to 0.5 |
| Cc1cc(Nc2cc(Nc3ccccc3N(C)S(C)(=O)=O)c3nc(C)[nH]c3n2)nc(C)n1 [I-124, N-(2-((5-((2,6-dimethylpyrimidin-4-yl)amino)-2-methyl-3H-imidazo[4,5-b]-pyridin-7-yl)amino)phenyl)-N-methylmethanesulfonamide] | 0.1 to 0.5 |
| Cc1nc2c(Nc3ccccc3N(C)S(C)(=O)=O)cc(Nc3ccc(C)c(C#N)n3)nc2[nH]1 [I-125, N-(2-((5-((6-cyano-5-methylpyridin-2-yl)amino)-2-methyl-3H-imidazo[4,5-b]pyridin-7-yl)amino)phenyl)-N-methylmethanesulfonamide] | 0.1 to 0.5 |
| Cc1nc2c(Nc3ccc(Cl)cc3S(C)(=O)=O)cc(NC(=O)C3CC3)nc2[nH]1 [I-126, N-(7-((4-chloro-2-(methylsulfonyl)phenyl)amino)-2-methyl-3H-imidazo[4,5-b]pyridin-5-yl)cyclopropanecarboxamide] | 0.1 to 0.5 |
| Cc1nc2c(Nc3ccccc3N(C)S(C)(=O)=O)cc(Nc3cccc(C(F)(F)F)n3)nc2[nH]1 [I-127, N-methyl-N-(2-((2-methyl-5-((6-(trifluoromethyl)pyridin-2-yl)amino)-3H-imidazo[4,5-b]pyridin-7-yl)amino)phenyl)methanesulfonamide] | 0.1 to 0.5 |
| COc1c(Nc2cc(NC(=O)C3CC3)nc3[nH]c(C)nc23)cccc1-n1cnc(C)n1 [I-128, N-(7-((2-methoxy-3-(3-methyl-1H-1,2,4-triazol-1-yl)phenyl)amino)-2-methyl-3H-imidazo[4,5-b]pyridin-5-yl)cyclopropanecarboxamide] | 1 to 10 |
| Cc1nc2c(Nc3ccc(N4CCC4)cc3N(C)S(C)(=O)=O)cc(NC(=O)C3CC3)nc2[nH]1 [I-129, N-(7-((4-(azetidin-1-yl)-2-(N-methylmethylsulfonamido)phenyl)amino)-2-methyl-3H-imidazo[4,5-b]pyridin-5-yl)cyclopropanecarboxamide] | 1 to 10 |
| Cc1nc2c(Nc3ccc(Cl)cc3N(C)S(C)(=O)=O)cc(Nc3cnc(C)c(C)n3)nc2[nH]1 [I-130, N-(5-chloro-2-((5-((5,6-dimethylpyrazin-2-yl)amino)-2-methyl-3H-imidazo[4,5-b]pyridin-7-yl)amino)phenyl)-N-methylmethanesulfonamide] | 0.5 to 1 |
| Cc1ccc(Nc2cc(NC(=O)C3CC3)nc3[nH]c(C)nc23)c(N(C)S(C)(=O)=O)c1 [I-131, N-(2-methyl-7-((4-methyl-2-(N-methylmethylsulfonamido)phenyl)amino)-3H-imidazo[4,5-b]pyridin-5-yl)cyclopropanecarboxamide] | 0.5 to 1 |
| Cc1ccc(Nc2cc(Nc3cnc(C)c(C)n3)nc3[nH]c(C)nc23)c(N(C)S(C)(=O)=O)c1 [I-132, N-(2-((5-((5,6-dimethylpyrazin-2-yl)amino)-2-methyl-3H-imidazo[4,5-b]pyridin-7-yl)amino)-5-methylphenyl)-N-methylmethanesulfonamide] | 0.1 to 0.5 |
| COc1c(Nc2cc(NC(=O)C3CC3)nc3[nH]c(C)nc23)cccc1-c1nn(C)nc1C [I-133, N-(7-((3-(2,5-dimethyl-2H-1,2,3-triazol-4-yl)-2-methoxyphenyl)amino)-2-methyl-3H-imidazo[4,5-b]pyridin-5-yl)cyclopropanecarboxamide] | 1 to 10 |
| Cc1nc2c(Nc3ccc(Cl)cc3N(C)S(C)(=O)=O)cc(Nc3cccc(C#N)n3)nc2[nH]1 [I-134, N-(5-chloro-2-((5-((6-cyanopyridin-2-yl)amino)-2-methyl-3H-imidazo[4,5-b]pyridin-7-yl)amino)phenyl)-N-methylmethanesulfonamide] | 0.1 to 0.5 |
| Cc1cnn(-c2ccc(Nc3cc(NC(=O)C4CC4)nc4[nH]c(C(F)F)nc34)c(N(C)S(C)(=O)=O)c2)c1 [I-135, N-(2-(difluoromethyl)-7-((4-(4-methyl-1H-pyrazol-1-yl)-2-(N-methylmethylsulfonamido)phenyl)amino)-3-imidazo[4,5-b]pyridin-5-yl)cyclopropanecarboxamide] | 0.1 to 0.5 |
| COc1ccccc1Nc1cc(Nc2ccc(N3CCC4(CCOCC4)CC3)cn2)nc2[nH]c(C(F)F)nc12 [I-136, N5-(5-(3-oxa-9-azaspiro[5.5]undecan-9-yl)pyridin-2-yl)-2-(difluoromethyl)-N7-(2-methoxyphenyl)-3H-imidazo[4,5-b]pyridine-5,7-diamine] | > 10 |
| COc1c(Nc2cc(Nc3cnc(C(C)(C)OC)c(C)n3)nc3[nH]c(C)nc23)cccc1-c1nnn(C)n1 [I-138, N7-(2-methoxy-3-(2-methyl-2H-tetrazol-5-yl)phenyl)-N5-(5-(2-methoxypropan-2-yl)-6-methylpyrazin-2-yl)-2-methyl-3H-imidazo[4,5-b]pyridine-5,7-diamines] | 1 to 10 |
| Cc1ccn(-c2ccc(Nc3cc(NC(=O)C4CC4)nc4[nH]c(C(F)F)nc34)c(N(C)S(C)(=O)=O)c2)n1 [I-139, N-(2-(difluoromethyl)-7-((4-(3-methyl-1H-pyrazol-1-yl)-2-(N-methylmethylsulfonamido)phenyl)amino)-3H-imidazo[4,5-b]pyridin-5-yl)cyclopropanecarboxamide] | 0.5 to 1 |
| COc1c(Nc2cc(NC(=O)C3CC3)nc3[nH]c(C(F)F)nc23)cccc1C(=O)O [I-140, 3-((5-(cyclopropanecarboxamido)-2-(difluoromethyl)-3H-imidazo[4,5-b]pyridin-7-yl)amino)-2-methoxybenzoic acid] | 1 to 10 |
| COc1c(Nc2cc(NC(=O)C3CC3)nc3[nH]c(C)nc23)cccc1C(=O)O [I-141, 3-((5-(cyclopropanecarboxamido)-2-methyl-3H-imidazo[4,5-b]pyridin-7-yl)amino)-2-methoxybenzoic acid] | > 10 |
| COc1cc(-c2cncn2C)ccc1Nc1cc(NC(=O)C2CC2)nc2[nH]c(C(F)F)nc12 [I-142, N-(2-(difluoromethyl)-7-((2-methoxy-4-(1-methyl-1H-imidazol-5-yl)phenyl)amino)-3H-imidazo[4,5-b]pyridin-5-yl)cyclopropanecarboxamide] | 1 to 10 |
| COc1cc(-c2cncn2C)ccc1Nc1cc(Nc2cccc(C#N)n2)nc2[nH]c(C(F)F)nc12 [I-143, 6-((2-(difluoromethyl)-7-((2-methoxy-4-(1-methyl-1H-imidazol-5-yl)phenyl)amino)-3H-imidazo[4,5-b]pyridin-5-yl)amino)picolinonitril] | 1 to 10 |
| COc1cc(-c2cncn2C)ccc1Nc1cc(Nc2cnc(C)c(C)n2)nc2[nH]c(C(F)F)nc12 [I-144, 2-(difluoromethyl)-N5-(5,6-dimethylpyrazin-2-yl)-N7-(2-methoxy-4-(1-methyl-1H-imidazol-5-yl)phenyl)-3H-imidazo[4,5-b]pyridine-5,7-diamine] | > 10 |
| Cc1cnn(-c2ccc(Nc3cc(NC(=O)C4CC4)nc4[nH]c(C)nc34)c(N(C)S(C)(=O)=O)c2)c1 [I-145, N-(2-methyl-7-((4-(4-methyl-1H-pyrazol-1-yl)-2-(N-methylmethylsulfonamido)phenyl)amino)-3H-imidazo[4,5-b]pyridin-5-yl)cyclopropanecarboxamide] | 0.5 to 1 |
| COc1c(Nc2cc(NC(=O)C3CC3)nc3[nH]c(C(F)F)nc23)cccc1-c1c(C)nnn1C [I-146, N-(2-(difluoromethyl)-7-((3-(1,4-dimethyl-1H-1,2,3-triazol-5-yl)-2-methoxyphenyl)amino)-3H-imidazo[4,5-b]pyridin-5-yl)cyclopropanecarboxamide] | 1 to 10 |
| CN(c1cc(-c2cncn2C)ccc1Nc1cc(NC(=O)C2CC2)nc2[nH]c(C(F)F)nc12)S(C)(=O)=O [I-147, N-(2-(difluoromethyl)-7-((4-(1-methyl-1H-imidazol-5-yl)-2-(N-methylmethylsulfonamido)phenyl)amino)-3H-imidazo[4,5-b]pyridin-5-yl)cyclopropanecarboxamide] | < 0.1 |
| Cn1ccc(-c2ccc(Nc3cc(NC(=O)C4CC4)nc4[nH]c(C(F)F)nc34)c(S(C)(=O)=O)c2)n1 [I-148, N-(2-(difluoromethyl)-7-((4-(1-methyl-1H-pyrazol-3-yl)-2-(methylsulfonyl)phenyl)amino)-3H-imidazo[4,5-b]pyridin-5-yl)cyclopropanecarboxamide] | 0.1 to 0.5 |
